# According to patent publication US20100298141A1, “SUBSTITUTED PYRIDINE N-OXIDE HERBICIDES” (E. I. DU PONT DE NEMOURS AND COMPANY, priority 2007, published 2010):
# Assays:
# field bindweed = assay: Test F preemergence test; assay type: in vivo, Convolvulus arvensis; details: scale 0 to 100
# Procedure, shortened: (§1)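 Visual ratings relative to controls, taken after 14 to 21 days in a greenhouse. Test chemicals, formulated in a surfactant-containing non-phytotoxic solvent mixture, were applied preemergence to sown seeds or postemergence to sugarcane plants.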
# Surinam grass = assay: Test F preemergence test; assay type: in vivo, Brachiaria decumbens; details: scale 0 to 100
# Procedure, shortened: as §1
# purple nutsedge = assay: Test F preemergence test; assay type: in vivo, Cyperus rotundus; details: scale 0 to 100; for Plant response rating, Purple Nutsedge: Preemergence
# Procedure, shortened: as §1
# pitted morningglory = assay: Test F preemergence test; assay type: in vivo, Ipomoea lacunosa; details: scale 0 to 100
# Procedure, shortened: as §1
# common ragweed = assay: Test F preemergence test; assay type: in vivo, Ambrosia elation; details: scale 0 to 100
# Procedure, shortened: as §1
# naked crabgrass = assay: Test F preemergence test; assay type: in vivo, Digitaria nuda; details: scale 0 to 100
# Procedure, shortened: as §1
# common purslane = assay: Test F preemergence test; assay type: in vivo, Portulaca oleracea; details: scale 0 to 100
# Procedure, shortened: as §1
# bermudagrass = assay: Test F preemergence test; assay type: in vivo, Cynodon dactylon; details: scale 0 to 100
# Procedure, shortened: as §1
# southern sandbur = assay: Test F preemergence test; assay type: in vivo, Cenchrus echinatus; details: scale 0 to 100
# Procedure, shortened: as §1
# guineagrass = assay: Test F preemergence test; assay type: in vivo, Panicum maximum; details: scale 0 to 100
# Procedure, shortened: as §1
# Russian thistle = assay: Test C pre-/postemergence test; assay type: in vivo, Salsola kali
# Procedure, shortened: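 Compounds in a non-phytotoxic solvent with surfactant applied preemergence to seeded pots and, at the same time, postemergence to plants 2–18 cm tall (1- to 4-leaf stage). Paddy tests: pots flooded to 3 cm, compound applied into the water, depth held throughout.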
# prickly sida = assay: Test F preemergence test; assay type: in vivo, Sida spinosa; details: scale 0 to 100
# Procedure, shortened: as §1
# itchgrass = assay: Test F preemergence test; assay type: in vivo, Rottboellia cochinchinensis; details: scale 0 to 100
# Procedure, shortened: as §1
# goosegrass = assay: Test F preemergence test; assay type: in vivo, Eleusine indica; details: scale 0 to 100
# Procedure, shortened: as §1
# broadleaf signalgrass = assay: Test F preemergence test; assay type: in vivo, Brachiaria platyphylla; details: scale 0 to 100
# Procedure, shortened: as §1
# Italian ryegrass = assay: Test F preemergence test; assay type: in vivo, Lolium multiflorum; details: scale 0 to 100
# Procedure, shortened: as §1
# johnsongrass = assay: Test F preemergence test; assay type: in vivo, Sorghum halepense; details: scale 0 to 100
# Procedure, shortened: as §1
smiles,measurement,setting,value
CC(Oc1c(C[S+]([O-])c2ccc(Cl)c[n+]2[O-])c(C(F)(F)F)nn1C)C(F)(F)F (stereo not shown) [Compound 87],"Plant response rating, Field Bindweed","field bindweed; 16 g ai/ha, preemergence",0
same,Field Bindweed plant response rating,"field bindweed; 125 g ai/ha, preemergence",40
same,"Plant response rating, Field Bindweed","field bindweed; Preemergence, 62 g ai/ha",20
same,"Plant response rating, Field Bindweed","field bindweed; Preemergence, 31 g ai/ha",0
same,"Plant response rating, Surinam Grass","Surinam grass; 16 g ai/ha, preemergence",65
same,Surinam Grass plant response rating,"Surinam grass; 125 g ai/ha, preemergence",100
same,"Plant response rating, Surinam Grass","Surinam grass; Preemergence, 62 g ai/ha",100
same,"Plant response rating, Surinam Grass","Surinam grass; Preemergence, 31 g ai/ha",100
same,Purple Nutsedge plant response rating,"purple nutsedge; 125 g ai/ha, preemergence",80
same,"Plant response rating, Purple Nutsedge",purple nutsedge; 62 g ai/ha,70
same,"Plant response rating, Purple Nutsedge",purple nutsedge; 31 g ai/ha,60
same,"Plant response rating, Morningglory","pitted morningglory; 16 g ai/ha, preemergence",0
same,Morningglory plant response rating,"pitted morningglory; 125 g ai/ha, preemergence",90
same,"Plant response rating, Morningglory","pitted morningglory; Preemergence, 62 g ai/ha",35
same,"Plant response rating, Morningglory","pitted morningglory; Preemergence, 31 g ai/ha",0
same,"Plant response rating, Ragweed","common ragweed; 16 g ai/ha, preemergence",0
same,Ragweed plant response rating,"common ragweed; 125 g ai/ha, preemergence",90
same,"Plant response rating, Ragweed","common ragweed; Preemergence, 62 g ai/ha",70
same,"Plant response rating, Ragweed","common ragweed; Preemergence, 31 g ai/ha",0
same,"Plant response rating, Crabgrass, Naked","naked crabgrass; 16 g ai/ha, preemergence",95
same,"Crabgrass, Naked plant response rating","naked crabgrass; 125 g ai/ha, preemergence",100
same,"Plant response rating, Crabgrass, Naked","naked crabgrass; Preemergence, 62 g ai/ha",100
same,"Plant response rating, Crabgrass, Naked","naked crabgrass; Preemergence, 31 g ai/ha",100
same,"Plant response rating, Purslane","common purslane; 16 g ai/ha, preemergence",0
same,Purslane plant response rating,"common purslane; 125 g ai/ha, preemergence",100
same,"Plant response rating, Purslane","common purslane; Preemergence, 62 g ai/ha",70
same,"Plant response rating, Purslane","common purslane; Preemergence, 31 g ai/ha",20
same,"Plant response rating, Bermudagrass","bermudagrass; 16 g ai/ha, preemergence",25
same,Bermudagrass plant response rating,"bermudagrass; 125 g ai/ha, preemergence",95
same,"Plant response rating, Bermudagrass","bermudagrass; Preemergence, 62 g ai/ha",70
same,"Plant response rating, Bermudagrass","bermudagrass; Preemergence, 31 g ai/ha",60
same,"Plant response rating, Sandbur","southern sandbur; 16 g ai/ha, preemergence",50
same,Sandbur plant response rating,"southern sandbur; 125 g ai/ha, preemergence",100
same,"Plant response rating, Sandbur","southern sandbur; Preemergence, 62 g ai/ha",100
same,"Plant response rating, Sandbur","southern sandbur; Preemergence, 31 g ai/ha",100
same,"Plant response rating, Guineagrass","guineagrass; 16 g ai/ha, preemergence",90
same,Guineagrass plant response rating,"guineagrass; 125 g ai/ha, preemergence",100
same,"Plant response rating, Guineagrass","guineagrass; Preemergence, 62 g ai/ha",100
same,"Plant response rating, Guineagrass","guineagrass; Preemergence, 31 g ai/ha",100
same,Russian Thistle plant response rating,"Russian thistle; 62 g ai/ha, Preemergence, scale 0 to 100",100
same,Russian Thistle plant response rating,"Russian thistle; 125 g ai/ha, preemergence, scale 0 (no effect) to 100 (complete control)",100
same,"Plant response rating, Russian Thistle","Russian thistle; Preemergence, 31 g ai/ha, scale 0 to 100 (0 no effect, 100 complete control)",100
same,Russian Thistle plant response rating,"Russian thistle; preemergence, 250 g ai/ha, scale 0 (no effect) to 100 (complete control)",100
same,"Plant response rating, Prickly Sida","prickly sida; 16 g ai/ha, preemergence",0
same,Prickly Sida plant response rating,"prickly sida; 125 g ai/ha, preemergence",100
same,"Plant response rating, Prickly Sida","prickly sida; Preemergence, 62 g ai/ha",75
same,"Plant response rating, Prickly Sida","prickly sida; Preemergence, 31 g ai/ha",50
same,"Plant response rating, Itchgrass","itchgrass; 16 g ai/ha, preemergence",35
same,Itchgrass plant response rating,"itchgrass; 125 g ai/ha, preemergence",100
same,"Plant response rating, Itchgrass","itchgrass; Preemergence, 62 g ai/ha",100
same,"Plant response rating, Itchgrass","itchgrass; Preemergence, 31 g ai/ha",85
same,"Plant response rating, Goosegrass","goosegrass; 16 g ai/ha, preemergence",70
same,Goosegrass plant response rating,"goosegrass; 125 g ai/ha, preemergence",100
same,"Plant response rating, Goosegrass","goosegrass; Preemergence, 62 g ai/ha",95
same,"Plant response rating, Goosegrass","goosegrass; Preemergence, 31 g ai/ha",80
same,"Plant response rating, Signalgrass","broadleaf signalgrass; 16 g ai/ha, preemergence",0
same,Signalgrass plant response rating,"broadleaf signalgrass; 125 g ai/ha, preemergence",95
same,"Plant response rating, Signalgrass","broadleaf signalgrass; Preemergence, 62 g ai/ha",65
same,"Plant response rating, Signalgrass","broadleaf signalgrass; Preemergence, 31 g ai/ha",15
same,"Plant response rating, Ryegrass, Italian","Italian ryegrass; 16 g ai/ha, preemergence",100
same,"Ryegrass, Italian plant response rating","Italian ryegrass; 125 g ai/ha, preemergence",100
same,"Plant response rating, Ryegrass, Italian","Italian ryegrass; Preemergence, 62 g ai/ha",100
same,"Plant response rating, Ryegrass, Italian","Italian ryegrass; Preemergence, 31 g ai/ha",100
same,"Plant response rating, Johnsongrass","johnsongrass; 16 g ai/ha, preemergence",40
same,Johnsongrass plant response rating,"johnsongrass; 125 g ai/ha, preemergence",100
same,"Plant response rating, Johnsongrass","johnsongrass; Preemergence, 62 g ai/ha",95
same,"Plant response rating, Johnsongrass","johnsongrass; Preemergence, 31 g ai/ha",75
